In patent publication US20210215714A1, “COMPLEMENT ALTERNATIVE PATHWAY-ASSOCIATED NEPHROPATHY BIOMARKERS” (Achillion Pharmaceuticals, Inc., priority 2018, published 2021):
pIC50: −log10 of the molar value.

Assays:
[1] = Phase 2a study in C3G / IC-MPGN patients: urine albumin-to-creatinine ratio (ACR); details: for ACR GEOMEAN / ACR MEAN: patients A-F;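 as to all read-outs here: urine samples from C3G or IC-MPGN patients read by central lab dipstick on automated urine chemistry analyzer, ratio computed from albumin and creatinine pad absorbance, healthy volunteer urine as control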
Source text: 10 patients with either C3 Glomerulopathy (C3G) or Immune-Complex Membranoproliferative Glomerulonephritis (IC-MPGN) are to be enrolled across two dose groups. […] Inclusion criteria include a clinical diagnosis of C3G (C3 glomerulonephritis [C3GN] or dense deposit disease [DDD], the 2 types of C3G) or idiopathic immune-complex membranoproliferative glomerulonephritis (IC-MPGN) by renal biopsy for at least 3 months prior to dosing, with the pathologic diagnosis verified by review of the renal biopsy by the study central pathologist. Patients must have low C3 levels (<50% of the lower limit of normal) and normal or near-normal C4 levels (>90% of the lower limit of normal). Group 1 has enrolled 2 out of 2 planned patients and Group 2 has enrolled 4 out of 8 planned patients.
Albumin and creatinine levels were measured in urine samples by a central reference lab using a urine dipstick method. Urine from non-study healthy volunteers served as control samples. An automatic urinary chemical analyzer was used with a dye for the detection of albumin at >8 mg/dL. Also present on the dipstick was a pad for detection of creatinine that uses the peroxidase activity of the copper-creatinine complex. The ACR ratio was automatically calculated by the analyzer based on the light absorbent readings of the albumin and creatinine test pads.

[2] = test system: C3; test: Phase 2a study: C3 levels in serum; format: in vivo, human; details: 14-day treatment, patients A-F
Protocol: (§1) Systemic complement proteins were measured in serum and plasma including serum Ba, plasma Bb, serum C3, serum Factor D, serum C4, and % Fragment C3.
C3 levels in serum were measured using a quantitative sandwich enzyme immunoassay technique. A monoclonal antibody specific for human C3 was pre-coated onto a micro-assay plate. Standards and samples were pipetted into the wells and any C3 present was bound by the immobilized antibody. After washing away any unbound substances, an enzyme-linked polyclonal antibody specific for human C3 was added to the wells. Following a wash to remove any unbound antibody-enzyme reagent, a substrate solution was added to the wells and color develops in proportion to the amount of C3 bound in the initial step. The color development was stopped and the intensity of the color was measured. […] Patients E and F show similar results.

[3] = test system: AP activity; test: rabbit erythrocyte hemolysis (AP activity in vitro); format: cell-based; details: Oryctolagus cuniculus
[4] = test system: Factor D; test: Phase 2a study: Factor D levels in serum; format: in vivo, human; details: 14-day treatment, patients A-F
Protocol: as §1
(§2) Factor D levels in serum were measured using a quantitative sandwich enzyme immunoassay technique. A monoclonal antibody specific for human Complement Factor D was pre-coated onto a micro-assay plate. Standards and samples were pipetted into the wells and any Complement Factor D present was bound by the immobilized antibody. After washing away any unbound substances, an enzyme-linked polyclonal antibody specific for human Complement Factor D was added to the wells. Following a wash to remove any unbound antibody-enzyme reagent, a substrate solution was added to the wells and color develops in proportion to the amount of Complement Factor D bound in the initial step. The color development was stopped and the intensity of the color was measured spectrophotometrically at 450 nm.

[5] = test system: C4; test: Phase 2a study: C4 levels in serum; format: in vivo, human; details: 14-day treatment, patients A-F
Protocol: as §1
as §2, with “C4” for “Factor D”, “C4” for “Complement Factor D”

[6] = test system: AP C3 convertase formation; test: Phase 2a study: ex vivo serum Ba production; format: in vivo, human; details: 14-day treatment, patients A-F
Protocol: as §1

SMILES: CC(=O)c1nn(CC(=O)N2C[C@H](F)C[C@H]2C(=O)Nc2cccc(Br)n2)c2ccc(-c3cnc(C)nc3)cc12 [Compound 1, (2S,4R)-1-(2-(3-acetyl-5-(2-methylpyrimidin-5-yl)-1H-indazol-1-yl)acetyl)-N-(6-bromopyridin-2-yl)-4-fluoropyrrolidine-2-carboxamide]
- ACR ([1]; Patient A, 100 mg TID, Day 1/0 Hour): 259 mg/mmol
- ACR ([1]; Patient A, 100 mg TID, Day 4): 218 mg/mmol
- ACR ([1]; Patient A, 100 mg TID, Day 7/0 Hour): 233 mg/mmol
- ACR ([1]; Patient A, 100 mg TID, Day 10): 228 mg/mmol
- ACR ([1]; Patient A, 100 mg TID, Day 14): 175 mg/mmol
- ACR ([1]; Patient A, 100 mg TID, Day 15 Taper): 144 mg/mmol
- ACR ([1]; Patient A, 100 mg TID, Day 16 Taper): 143 mg/mmol
- ACR ([1]; Patient A, 100 mg TID, Day 17 Taper): 115 mg/mmol
- ACR ([1]; Patient A, 100 mg TID, Day 21 Taper): 140 mg/mmol
- ACR ([1]; Patient A, 100 mg TID, Follow-Up Day 24): 138 mg/mmol
- ACR ([1]; Patient A, 100 mg TID, Follow-Up Day 28): 132 mg/mmol
- ACR ([1]; Patient A, 100 mg TID, Follow-Up Day 35): 160 mg/mmol
- ACR ([1]; Patient A, 100 mg TID, Follow-Up Day 49): 147 mg/mmol
- ACR ([1]; Patient A, 100 mg TID, Screen): 228 mg/mmol
- ACR ([1]; Patient B, 100 mg TID, Day 1/0 Hour): 580 mg/mmol
- ACR ([1]; Patient B, 100 mg TID, Day 4): 264 mg/mmol
- ACR ([1]; Patient B, 100 mg TID, Day 7/0 Hour): 249 mg/mmol
- ACR ([1]; Patient B, 100 mg TID, Day 10): 253 mg/mmol
- ACR ([1]; Patient B, 100 mg TID, Day 14): 343 mg/mmol
- ACR ([1]; Patient B, 100 mg TID, Day 15 Taper): 325 mg/mmol
- ACR ([1]; Patient B, 100 mg TID, Day 16 Taper): 329 mg/mmol
- ACR ([1]; Patient B, 100 mg TID, Day 17 Taper): 263 mg/mmol
- ACR ([1]; Patient B, 100 mg TID, Day 21 Taper): 373 mg/mmol
- ACR ([1]; Patient B, 100 mg TID, Follow-Up Day 24): 469 mg/mmol
- ACR ([1]; Patient B, 100 mg TID, Follow-Up Day 28): 381 mg/mmol
- ACR ([1]; Patient B, 100 mg TID, Follow-Up Day 49): 140 mg/mmol
- ACR ([1]; Patient B, 100 mg TID, Screen): 486 mg/mmol
- ACR ([1]; Patient C, 200 mg TID, Day 1/0 Hour): 58 mg/mmol
- ACR ([1]; Patient C, 200 mg TID, Day 4): 27 mg/mmol
- ACR ([1]; Patient C, 200 mg TID, Day 7/0 Hour): 22 mg/mmol
- ACR ([1]; Patient C, 200 mg TID, Day 10): 35 mg/mmol
- ACR ([1]; Patient C, 200 mg TID, Day 14): 30 mg/mmol
- ACR ([1]; Patient C, 200 mg TID, Day 15 Taper): 44 mg/mmol
- ACR ([1]; Patient C, 200 mg TID, Day 16 Taper): 26 mg/mmol
- ACR ([1]; Patient C, 200 mg TID, Day 17 Taper): 32 mg/mmol
- ACR ([1]; Patient C, 200 mg TID, Day 21 Taper): 23 mg/mmol
- ACR ([1]; Patient C, 200 mg TID, Follow-Up Day 24): 32 mg/mmol
- ACR ([1]; Patient C, 200 mg TID, Follow-Up Day 28): 47 mg/mmol
- ACR ([1]; Patient C, 200 mg TID, Follow-Up Day 49): 20 mg/mmol
- ACR ([1]; Patient C, 200 mg TID, Screen): 44 mg/mmol
- ACR ([1]; Patient C, 200 mg TID, Screen 1): 128 mg/mmol
- ACR ([1]; Patient D, 200 mg TID, Day 1/0 Hour): 224 mg/mmol
- ACR ([1]; Patient D, 200 mg TID, Day 4): 279 mg/mmol
- ACR ([1]; Patient D, 200 mg TID, Day 7/0 Hour): 322 mg/mmol
- ACR ([1]; Patient D, 200 mg TID, Day 10): 648 mg/mmol
- ACR ([1]; Patient D, 200 mg TID, Day 14): 286 mg/mmol
- ACR ([1]; Patient D, 200 mg TID, Day 15 Taper): 328 mg/mmol
- ACR ([1]; Patient D, 200 mg TID, Day 17 Taper): 586 mg/mmol
- ACR ([1]; Patient D, 200 mg TID, Day 21 Taper): 564 mg/mmol
- ACR ([1]; Patient D, 200 mg TID, Follow-Up Day 24): 282 mg/mmol
- ACR ([1]; Patient D, 200 mg TID, Follow-Up Day 28): 577 mg/mmol
- ACR ([1]; Patient D, 200 mg TID, Follow-Up Day 35): 398 mg/mmol
- ACR ([1]; Patient D, 200 mg TID, Follow-Up Day 49): 636 mg/mmol
- ACR ([1]; Patient D, 200 mg TID, Screen): 579 mg/mmol
- ACR ([1]; Patient D, 200 mg TID, Screen 1): 160 mg/mmol
- ACR ([1]; Patient E, 200 mg TID, Day 1/0 Hour): 424 mg/mmol
- ACR ([1]; Patient E, 200 mg TID, Day 4): 418 mg/mmol
- ACR ([1]; Patient E, 200 mg TID, Day 7/0 Hour): 533 mg/mmol
- ACR ([1]; Patient E, 200 mg TID, Day 10): 625 mg/mmol
- ACR ([1]; Patient E, 200 mg TID, Day 14): 264 mg/mmol
- ACR ([1]; Patient E, 200 mg TID, Day 15 Taper): 327 mg/mmol
- ACR ([1]; Patient E, 200 mg TID, Day 16 Taper): 277 mg/mmol
- ACR ([1]; Patient E, 200 mg TID, Day 17 Taper): 475 mg/mmol
- ACR ([1]; Patient E, 200 mg TID, Day 21 Taper): 257 mg/mmol
- ACR ([1]; Patient E, 200 mg TID, Follow-Up Day 24): 303 mg/mmol
- ACR ([1]; Patient E, 200 mg TID, Follow-Up Day 28): 307 mg/mmol
- ACR ([1]; Patient E, 200 mg TID, Follow-Up Day 49): 327 mg/mmol
- ACR ([1]; Patient F, 200 mg TID, Day 4): 152 mg/mmol
- ACR ([1]; Patient F, 200 mg TID, Day 7/0 Hour): 94 mg/mmol
- ACR ([1]; Patient F, 200 mg TID, Day 14): 184 mg/mmol
- ACR ([1]; Patient F, 200 mg TID, Day 15 Taper): 720 mg/mmol
- ACR ([1]; Patient F, 200 mg TID, Day 16 Taper): 235 mg/mmol
- ACR ([1]; Patient F, 200 mg TID, Day 17 Taper): 475 mg/mmol
- ACR ([1]; Patient F, 200 mg TID, Day 21 Taper): 348 mg/mmol
- ACR ([1]; Patient F, 200 mg TID, Follow-Up Day 24): 279 mg/mmol
- ACR ([1]; Patient F, 200 mg TID, Follow-Up Day 28): 253 mg/mmol
- ACR ([1]; Patient F, 200 mg TID, Follow-Up Day 35): 168 mg/mmol
- ACR ([1]; Patient F, 200 mg TID, Follow-Up Day 49): 564 mg/mmol
- ACR ([1]; Patient F, 200 mg TID, Screen): 308 mg/mmol
- reductions in ACR ([1]; Patients A, B, C, E, and F, two-week treatment): approximately 50%
- ACR GEOMEAN ([1]; Day 1/0 Hour): 249.6 mg/mmol
- ACR MEAN ([1]; Day 1/0 Hour): 306.4 mg/mmol
- ACR GEOMEAN ([1]; Day 4): 174.0 mg/mmol
- ACR MEAN ([1]; Day 4): 226.3 mg/mmol
- ACR GEOMEAN ([1]; Day 7/0 Hour): 164.9 mg/mmol
- ACR MEAN ([1]; Day 7/0 Hour): 242.1 mg/mmol
- ACR GEOMEAN ([1]; Day 14): 171.4 mg/mmol
- ACR MEAN ([1]; Day 14): 213.8 mg/mmol
- ACR GEOMEAN ([1]; Day 15 Taper): 232.4 mg/mmol
- ACR MEAN ([1]; Day 15 Taper): 314.6 mg/mmol
- ACR GEOMEAN ([1]; Day 17 Taper): 224.2 mg/mmol
- ACR MEAN ([1]; Day 17 Taper): 324.2 mg/mmol
- ACR GEOMEAN ([1]; Day 21 Taper): 197.9 mg/mmol
- ACR MEAN ([1]; Day 21 Taper): 284.0 mg/mmol
- ACR GEOMEAN ([1]; Follow-Up Day 24): 191.6 mg/mmol
- ACR MEAN ([1]; Follow-Up Day 24): 250.6 mg/mmol
- ACR GEOMEAN ([1]; Follow-Up Day 28): 217.5 mg/mmol
- ACR MEAN ([1]; Follow-Up Day 28): 282.6 mg/mmol
- ACR GEOMEAN ([1]; Follow-Up Day 49): 191.1 mg/mmol
- ACR MEAN ([1]; Follow-Up Day 49): 305.6 mg/mmol
- Serum C3 [2]: increased
- pIC50 [3]: 7.57
- Serum Factor D [4]: remained unchanged
- Serum C4 [5]: remained unchanged
- Ex vivo serum Ba production [6]: inhibited
